The assay deals with HIV-1 protease (Human immunodeficiency virus type 1 group M subtype B, UniProt P04585). Description: biochemical. An outline of the steps:
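Biotinylated, FITC-labeled peptide substrate (20 μl of 0.2 μM) incubated with HIV-1 protease (10 μl of 0.1 μM) and compound in 0.1 M sodium acetate pH 5.5, 1.0 M NaCl, 0.05% NP-40, 1 h, room temperature, dark. Streptavidin beads then capture uncleaved substrate; filtered labeled product read by fluorescence, giving percent inhibition.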

Setting [1] is: dose 1.100 uM, read-out: HIV-1 Protease % Inhib.
Setting [2] is: dose 3.300 uM, read-out: HIV-1 Protease % Inhib.
The mark [3] stands for this setting: dose 10.000 uM, read-out: HIV-1 Protease % Inhib.
[4] abbreviates: dose 30.000 uM, read-out: HIV-1 Protease % Inhib.
The mark [5] stands for this setting: read-out: HIV-1 Protease % Inhib, dose 1.100 uM.
The mark [6] stands for this setting: read-out: HIV-1 Protease % Inhib, dose 3.300 uM.
Setting [7] is: read-out: HIV-1 Protease % Inhib, dose 10.000 uM.
The mark [8] stands for this setting: read-out: HIV-1 Protease % Inhib, dose 30.000 uM.

Like-named read-outs stand apart in the source and are kept apart here.

`O=C(Nc1ccccc1)Nc1cccc(C(c2c(O)c3c(oc2=O)CCCCCC3)C2CC2)c1` (centres unmarked) [Example 224, N-[3-[Cyclopropyl(5,6,7,8,9,10-hexahydro-4-hydroxy-2-oxo-2H-cycloocta[b]pyran-3-yl)methyl]phenyl]-N'-phenyl-urea]: the inhibition at 0.37 µM (dose 0.370 uM, read-out: HIV-1 Protease % Inhib) stood at 10.9%. In addition, the inhibition at 1.1 µM under setting [1] amounted to 42.4%. Further, under setting [2], the inhibition at 3.3 µM came to 72.3%. Moreover, the inhibition at 10 µM under setting [3] is 83.7%. Also, under setting [4], the inhibition at 30 µM came to 95.3%.

Regarding `O=C(Nc1cccc(C(c2c(O)c3c(oc2=O)CCCCCC3)C2CC2)c1)Oc1ccccc1` (centres unmarked) [Example 225, [3-[Cyclopropyl(5,6,7,8,9,10-hexahydro-4-hydroxy-2-oxo-2H-cycloocta[b]pyran-3-yl)methyl]phenyl]-, phenyl ester carbamic acid], the inhibition at 1.1 µM under setting [5] came to 14.9%. Further, the inhibition at 3.3 µM under setting [6] is 47%. Under setting [7], the inhibition at 10 µM is 77.2%. Also, under setting [8], the inhibition at 30 µM amounted to 91.7%.

Turning to `CC(C)C(c1ccccc1)c1c(O)c2c(oc1=O)CCCCCC2` (centres unmarked) [Example 227, 2H-Cycloocta[b]pyran-2-one,5,6,7,8,9,10-hexahydro-4-hydroxy-3-(2-methyl-1-phenylpropyl)-], the inhibition at 0.37 µM (read-out: HIV-1 Protease % Inhib, dose 0.370 uM) was determined as 41.7%. The inhibition at 1.1 µM under setting [5] amounted to 81.1%. Moreover, under setting [6], the inhibition at 3.3 µM was 91.1%. Moreover, the inhibition at 10 µM under setting [7] was 90.1%. Moreover, the inhibition at 30 µM under setting [8] is 80.9%.

On to `O=c1oc2c(c(O)c1C(c1cccc(NCc3ccccc3)c1)C1CC1)CCCCCC2` (centres unmarked) [Example 242, 3-[Cyclopropyl-[3-[(phenylmethyl)amino]phenyl]methyl]-5,6,7,8,9,10-hexahydro-4-hydroxy-2H-cycloocta[b]pyran-2-one], for which, under setting [1], the inhibition at 1.1 µM was found to be 13.8%. The inhibition at 3.3 µM under setting [2] came to 36%. For the same compound, the inhibition at 10 µM under setting [3] turned out to be 65.3%. In addition, the inhibition at 30 µM under setting [4] was 78.9%.

For the compound `O=c1oc2c(c(O)c1C(c1cccc(NCCc3ccccc3)c1)C1CC1)CCCCCC2` (centres unmarked) [Example 243, 3-[Cyclopropyl-[3-[(2-phenylethyl)amino]phenyl]methyl]-5,6,7,8,9, 10-hexahydro-4-hydroxy-2H-cycloocta[b]pyran-2-one], the inhibition at 3.3 µM under setting [2] stood at 24.4%. Moreover, under setting [3], the inhibition at 10 µM was determined as 44.7%. Besides, under setting [4], the inhibition at 30 µM is 54.3%.

For `O=c1oc2c(c(O)c1C(c1cccc(N(Cc3ccccc3)S(=O)(=O)c3ccccc3)c1)C1CC1)CCCCCC2` (centres unmarked) [Example 244, N-[3-[Cyclopropyl(5,6,7,8,9, 10-hexahydro-4-hydroxy-2-oxo-2H-cycloocta[b]pyran-3-yl)methyl]phenyl]-N-(phenylmethyl)-benzenesulfonamide], under setting [3], the inhibition at 10 µM came out at 18.8%. In addition, the inhibition at 30 µM under setting [4] was 31.8%.

In the case of `CS(=O)(=O)N(Cc1ccccc1)c1cccc(C(c2c(O)c3c(oc2=O)CCCCCC3)C2CC2)c1` (centres unmarked) [Example 245, N-[3-[Cyclopropyl(5,6,7,8,9, 10-hexahydro-4-hydroxy-2-oxo-2H-cycloocta[b]pyran-3-yl)methyl]phenyl]-N-(phenylmethyl)-methanesulfonamide], under setting [1], the inhibition at 1.1 µM came out at 10.6%. In addition, under setting [2], the inhibition at 3.3 µM came out at 50.9%. In addition, under setting [3], the inhibition at 10 µM turned out to be 59.5%. Further, under setting [4], the inhibition at 30 µM was 78.6%.

For `O=c1oc2c(c(O)c1C(c1cccc(N(CCc3ccccc3)S(=O)(=O)c3ccccc3)c1)C1CC1)CCCCCC2` (centres unmarked) [Example 246, N-[3-[cyclopropyl(5,6,7,8,9,10-hexahydro-4-hydroxy-2-oxo-2H-cycloocta[b]pyran-3-yl)methyl]phenyl]-N-(2-phenylethyl)-benzenesulfonamide], under setting [3], the inhibition at 10 µM was found to be 26.6%. In addition, the inhibition at 30 µM under setting [4] was determined as 49.7%.

These data come from patent US5686486A, “4-hydroxy-benzopyran-2-ones and 4-hydroxy-cycloalkyl[b]pyran-2-ones useful to treat retroviral infections” (priority 1995, dated 1997).
